Each molecule was assayed against T1, USP7 (Homo sapiens, UniProt Q93009, C315A) (assay: Inhibition of USP7 by Fluorescence Intensity (FLINT) readings, Ubiquitin-Rhodamine-110 substrate). Settings: 0.25 nM His-His-USP7 (aa208-560, [C315A]); compound 60 minutes at 30° C.; 500 nM Ubiquitin-Rhodamine substrate; 11-point curves.
T1 construct: 0.25 nM His-His-USP7 (aa208-560, [C315A]) was incubated with compound; His-His (N)
Type: biochemical
Method: USP7 activity was measured using Rhodamine-110 c-terminal labelled Ubiquitin as a substrate (Viva Biosciences). Incubation with USP7 results in the release of Rhodamine-110 leading to an increase in fluorescence which can be used in the continuous measurement of USP7 activity.
The USP7 reactions were performed in a 50 μL volume, in 384 well black solid low binding plates (Corning #3575). The reaction buffer consisted of 100 mM Bicine pH 8.0, 0.01% TritonX 100, 1 mM TCEP, and 10% DMSO.
0.25 nM His-His-USP7 (aa208-560, [C315A]) was incubated with compound (final concentration 10% DMSO) for 60 minutes at 30° C. The reaction was then initiated by the addition of 500 nM Ubiquitin-Rhodamine-10 substrate and the plate read every 3 minutes for 21 minutes to measure the release of Rhodamine-110. Fluorescence Intensity (FLINT) readings were measured using a Biomek Neo plate reader (Ex. 485 nm. Em. 535 nm).
The inhibition of increasing doses of compound was expressed as a percentage reduction in kinetic rate compared to the kinetic rates established between ‘DMSO only’ and ‘total inhibition’ controls (no USP7). The inhibitory concentrations that gave a 50% reduction in kinetic rate (IC50) were determined, from 11-point dose response curves, in XL-Fit using a 4-Parameter Logistic Model (Sigmoidal Dose-Response Model).

T1 sequence (Q93009 208-560 C315A): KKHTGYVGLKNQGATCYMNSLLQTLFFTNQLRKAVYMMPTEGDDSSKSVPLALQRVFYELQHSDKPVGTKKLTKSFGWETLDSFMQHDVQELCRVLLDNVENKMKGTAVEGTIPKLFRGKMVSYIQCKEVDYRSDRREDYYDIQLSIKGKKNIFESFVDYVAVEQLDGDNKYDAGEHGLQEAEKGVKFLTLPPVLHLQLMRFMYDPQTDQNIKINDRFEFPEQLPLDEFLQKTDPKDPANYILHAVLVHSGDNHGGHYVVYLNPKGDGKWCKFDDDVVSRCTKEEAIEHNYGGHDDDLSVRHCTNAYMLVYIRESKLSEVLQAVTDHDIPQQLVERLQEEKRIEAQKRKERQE

| SMILES | IC50 [nM] |
| --- | --- |
| COc1ccc(-n2ccc3c(=O)n(CC4(O)CCN(C(=O)[C@@H]5CCC(F)(F)C[C@H]5c5ccccc5)CC4)cnc32)cc1 (single isomer, unassigned) [Example 33, 3-[[1-(trans-4,4-difluoro-2-phenyl-cyclohexanecarbonyl)-4-hydroxy-4-piperidyl]methyl]-7-(4-methoxyphenyl)pyrrolo[2,3-d]pyrimidin-4-one] | 4670 |
| COc1ccc(-n2ccc3c(=O)n(CC4(O)CCN(C(=O)C5CCCN5c5ccccc5)CC4)cnc32)cc1 (stereo not shown) [Example 11, 3-[[4-hydroxy-1-(1-phenylpyrrolidine-2-carbonyl)-4-piperidyl]methyl]-7-(4-methoxyphenyl)pyrrolo[2,9-d]pyrimidin-4-one] | 2570 |
| Cn1ccnc1[C@@H]1CCCC[C@H]1C(=O)N1CCC(O)(Cn2cnc3c(ccn3-c3ccccc3)c2=O)CC1 (single isomer, unassigned) [Example 57, 3-[[4-hydroxy-1-[trans-2-(1-methylimidazol-2-yl)cyclohexanecarbonyl]-4-piperidyl]methyl]-7-phenyl-pyrrolo[2,3-d]pyrimidin-4-one] | 28400 |
| O=C([C@@H]1OCCO[C@@H]1c1ccccc1)N1CCC(O)(Cn2cnc3c(ccn3-c3ccccc3)c2=O)CC1 (single isomer, unassigned) [Example 6, 3-[[4-hydroxy-1-[cis-3-phenyl-1,4-dioxane-2-carbonyl]-4-piperidyl]methyl]-7-phenyl-pyrrolo[2,3-d]pyrimidin-4-one] | 28000 |
| COc1ccc(-n2ccc3c(=O)n(CC4(O)CCN(C(=O)C5CCCCC5c5nccn5C)CC4)cnc32)cc1 (single isomer, unassigned) [Example 69, 3-[[4-hydroxy-1-trans-2-(1-methylimidazol-2-yl)cyclohexanecarbonyl]-4-piperidyl]methyl-7-(4-methoxyphenyl)pyrrolo[2,3-d]pyrimidin-4-one] | 10500 |
| O=C([C@@H]1CCC(F)(F)C[C@H]1c1ccccc1)N1CCC(O)(Cn2cnc3c(ccn3-c3ccccc3)c2=O)CC1 (single isomer, unassigned) [Example 35, 3-[[1-[trans-4,4-difluoro-2-phenyl-cyclohexanecarbonyl]-4-hydroxy-4-piperidyl]methyl]-7-phenyl-pyrrolo[2,3-d]pyrimidin-4-one] | 13500 |
| COc1ccc(-n2ccc3c(=O)n(CC4(O)CCN(C(=O)[C@@H]5CCCC[C@H]5c5ccc(F)cc5)CC4)cnc32)cc1 (single isomer, unassigned) [Example 40, 3-[[1-[trans-2-(4-fluorophenyl)cyclohexanecarbonyl]-4-hydroxy-4-piperidyl]methyl]-7-(4-methoxyphenyl)pyrrolo[2,3-d]pyrimidin-4-one] | 883 |
| COc1ccc(-n2ccc3c(=O)n(CC4(O)CCN(C(=O)[C@@H]5CCC(F)(F)C[C@H]5c5ccoc5)CC4)cnc32)cc1 (relative stereo) [Example 74, 3-[[1-[trans-4,4-difluoro-2-(3-fury)cyclohexanecarbonyl]-4-hydroxy-4-piperidyl]methyl]-7-(4-methoxyphenyl)pyrrolo[2,3-d]pyrimidin-4-one] | 2900 |
| O=C([C@@H]1OCCO[C@@H]1c1ccccc1)N1CCC(O)(Cn2cnc3c(ccn3-c3ccccc3)c2=O)CC1 (single isomer, unassigned) [Example 5, 3-[[4-hydroxy-1-[cis-3-phenyl-1,4-dioxane-2-carbonyl]-4-piperidyl]methyl]-7-phenyl-pyrrolo[2,3-d]pyrimidin-4-one] | 19400 |
| COc1ccc(-n2ccc3c(=O)n(CC4(O)CCN(C(=O)[C@@H]5CCCC[C@H]5c5nccn5C)CC4)cnc32)cc1 (single isomer, unassigned) [Example 70, 3-[[4-hydroxy-1-[trans-2-(1-methylimidazol-2-yl)cyclohexanecarbonyl]-4-piperidyl]methyl]-7-(4-methoxyphenyl)pyrrolo[2,3-d]pyrimidin-4-one] | 9230 |

Now those with a lower IC50, led by results:

| IC50 [nM] | SMILES |
| --- | --- |
| 725 | COc1ccc(-n2ccc3c(=O)n(CC4(O)CCN(C(=O)C5C(C)=CCCC5c5cccs5)CC4)cnc32)cc1 (single isomer, unassigned) [Example 60, 3-[[4-hydroxy-1-[trans-2-methy-6-(2-thienyl)cyclohex-2-ene-1-carbonyl]-4-piperidyl]methyl]-7-(4-methoxyphenyl)pyrrolo[2,3-d]pyrimidin-4-one] |
| 632 | O=C([C@@H]1CCC(F)(F)C[C@H]1c1cscn1)N1CCC(O)(Cn2cnc3c(-c4ccccc4)scc3c2=O)CC1 (single isomer, unassigned) [Example 83, 3-[[1-[trans-4,4-difluoro-2-thiazol-4-yl-cyclohexanecarbonyl]-4-hydroxy-4-piperidyl]methyl]-7-phenyl-thieno[3,4-d]pyrimidin-4-one] |
| 530 | Cn1ccc2c(=O)n(CC3(O)CCN(C(=O)[C@@H]4CCCC[C@H]4c4ccoc4)CC3)cnc21 (relative stereo) [Example 3, 3-[[1-[trans-2-(3-furyl)cyclohexanecarbonyl]-4-hydroxy-4-piperidyl]methyl]-7-methyl-pyrrolo[2,3-d]pyrimidin-4-one] |
| 439 | Cn1ccc2c(=O)n(CC3(O)CCN(C(=O)[C@@H]4CCCC[C@H]4c4ccsc4)CC3)cnc21 (relative stereo) [Example 2, 3-[[4-hydroxy-1-[trans-2-(3-thienyl)cyclohexanecarbonyl]-4-piperidyl]methyl]-7-methyl-pyrrolo[2,3-d]pyrimidin-4-one] |
| 399 | CN1C(=O)CC[C@@H](C(=O)N2CCC(O)(Cn3cnc4c(ccn4C)c3=O)CC2)[C@@H]1c1ccccc1 (single isomer, unassigned) [Example 38, 3-[[4-hydroxy-1-[trans-1-methyl-6-oxo-2-phenyl-piperidine-3-carbonyl]-4-piperidyl]methyl]-7-methyl-pyrrolo[2,3-d]pyrimidin-4-one] |
| 310 | O=C([C@@H]1CCC(F)(F)C[C@H]1c1ccsc1)N1CCC(O)(Cn2cnc3c(-c4ccccc4)scc3c2=O)CC1 (single isomer, unassigned) [Example 88, 3-[[1-[trans-4,4-difluoro-2-(3-thienyl)cyclohexanecarbonyl]-4-hydroxy-4-piperidyl]methyl]-7-phenyl-thieno[3,4-d]pyrimidin-4-one] |
| 226 | Nc1ccc2ncn(CC3(O)CCN(C(=O)[C@@H]4CCCC[C@H]4c4ccccc4)CC3)c(=O)c2n1 (relative stereo) [Example 100, 6-amino-3-[[4-hydroxy-1-(trans-2-phenylcyclohexanecarbonyl)-4-piperidyl]methyl]pyrido[3,2-d]pyrimidin-4-one] |
| 83.8 | COc1ccc(-n2ccc3c(=O)n(CC4(O)CCN(C(=O)[C@@H]5CCC(F)(F)C[C@H]5c5cccs5)CC4)cnc32)cc1 (single isomer, unassigned) [Example 73, 3-[[1-[trans-4,4-difluoro-2-(2-thienyl)cyclohexanecarbonyl]-4-hydroxy-4-piperidyl]methyl]-7-(4-methoxyphenyl)pyrrolo[2,3-d]pyrimidin-4-one] |
| 65.2 | COc1ccc(-n2ccc3c(=O)n(CC4(O)CCN(C(=O)[C@@H]5C(C)=CCC[C@H]5c5cccs5)CC4)cnc32)cc1 (single isomer, unassigned) [Example 59, 3-[[4-hydroxy-1-[trans-2-methyl-6-(2-thienyl)cyclohex-2-ene-1-carbonyl]-4-piperidyl]methyl]-7-(4-methoxyphenyl)pyrrolo[2,3-d]pyrimidin-4-one] |
